“Also recorded” adds a separate entry of the source.
Molecular target: amylogenic protein (Homo sapiens, UniProt P05067)
Assay: Protein aggregation with or without inhibitor, aggregate size by dynamic light scattering
Format: biochemical
Settings: 10 μM inhibitor added before 1 h incubation with agitation
Description: Aggregate size determination. Hydrodynamic diameter of amylogenic protein and BSA aggregates were determined by dynamic light scattering analysis (Zetasizer Nano ZSP, Malvern). 3×14 measurement runs were performed at 4° C. Z-average diameter and polydispersity were analyzed. For every measurement, the auto-correlation function and polydispersity index were monitored to ensure sample quality for size determination.
Protein aggregation. Lyophilized amylogenic protein was resuspended in NaOH (60 mM, 4° C.), sonicated, and pH adjusted to pH 7.4 in PBS. The protein was immediately filtered through a 0.2-μm membrane filter (Millipore) and the filtrate was used as the small initial aggregates. For preparation of the bigger aggregates, the protein was treated as described above and incubated with agitation for 1 h to induce further aggregation. […] Aggregate size determination was performed at the end of the incubation.

Chain of amylogenic protein (P05067 672-713 limits assumed): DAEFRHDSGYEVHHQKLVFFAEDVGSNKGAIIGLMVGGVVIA

Compound: CN(C)c1ccc2nc3ccc(=[N+](C)C)cc-3sc2c1 [inhibitor, methylene blue]
- increase in size as a result of spontaneous protein aggregation: reduced spontaneous protein aggregation; also recorded: minimal

— patent US12523664B2, “Sensor chip and methods thereof” (NATIONAL UNIVERSITY OF SINGAPORE, priority 2019, dated 2026)
